Assay results taken from US20140271734A1, “BILE ACID RECYCLING INHIBITORS FOR TREATMENT OF BARRETT'S ESOPHAGUS AND GASTROESOPHAGEAL REFLUX DISEASE” (LUMENA PHARMACEUTICALS, INC., priority 2013, published 2014).
Marks after values point to notes of the source that are not given here.

Legend:
fecal bile acids = assay: Fecal bile acid excretion, ascending multiple oral doses of LUM001 in healthy adults; type: in vivo, human
Experimental: This Phase 1 study was a randomized, double-blind, placebo-controlled study of ascending multiple oral doses of LUM001 in healthy, adult subjects. This study was conducted at a single center. There were 13 LUM001 dosing panels: 10, 20, 60, 100, and 20 mg every morning (qAM) (2) (i.e., the regimen was tested a second time in the study), 5 mg every evening (qPM), 0.5, 1, 2.5, 5, 2.5 (2), 5 (2), and 0.5 to 5 mg qAM dose titration. Most of the dosing panels included subjects treated with matching placebo. No subject participated in more than 1 dosing panel. Subjects were randomized into the study by dosing panel, and all subjects within a dosing panel received study medication at approximately the same time each day. Safety was reviewed for each panel before subsequent panels were initiated. A total of 167 subjects were treated for 28 days, 147 with LUM001 and 20 with placebo.
During the Pretreatment Screening Period (Days −31 through −4), subjects were seen on an outpatient basis to determine study eligibility based on enrollment criteria. On Day −3, eligible subjects were admitted to the research facility during the morning. Subjects were confined to the research facility from Days −3 to 30. During the entire period of confinement to the research facility, subjects received a study diet composed of 35% of caloric intake from fat, 15% from protein, and 50% from carbohydrates. The total daily caloric intake (based on the subject's weight) was fixed and divided into 3 equicaloric equal-fat-containing meals. The fixed fat composition and caloric content of the diet was designed to reduce inter- and intra-subject variability of serum total bile acids (SBA) and FBA, lipid parameters, and fat absorption parameters.
On Day 1 of the Treatment Period, subjects who qualified for enrollment were randomized in the order in which they were admitted to the research facility. On the same day, subjects began receiving study medication. Subsequent analyses included clinical and laboratory safety assessments and profiles of PK, PD, and lipid parameters. The safety and tolerability of LUM001 were evaluated by physical examination, ascertainment of adverse signs and symptoms, and clinical laboratory studies. Blood and urine samples were obtained for measurement of LUM001 plasma, whole blood, and urine concentrations for subsequent PK analyses. Efficacy responses included measuring FBA as a surrogate marker for the inhibition of intestinal bile acid transport. For the qAM dosing panels, LUM001 or placebo was administered each day of the treatment period (28 days) immediately prior to the morning meal at approximately 08:00 and after any necessary blood work was drawn.
Fecal samples were collected for all panels except the dose-titration panel, 2.5 (2) and 5 mg (2), on Days 9 through 14 and 23 through 28 (data shown in FIG. 6; *p<0.05; **p<0.01 compared to placebo). Twenty-four hour FBA excretions were quantified by Pharmacia for Days 9 through 14 and 23 through 28. Feces were collected in a 24-hour collection container beginning at 08:00 and ending 24 hours later. This procedure was followed on Days 9 through 14 and 23 through 28, with new collection containers issued for each 24-hour period. The weight of each 24-hour fecal collection was recorded on the CRFs. Specimens were stored in 24-hour containers, frozen at approximately −80° C. prior to analysis.
An aliquot for each 24-hour fecal sample collected on Days 23 through 28 was combined, homogenized, and analyzed for bile acid species concentrations by ANAPHARM. The fecal bile acid species evaluated include chenodeoxycholic acid, cholic acid, deoxycholic acid, and lithocholic acid.

plasma lipase = assay: Plasma lipase in ZDF rats, week 3; type: in vivo; conditions: twice daily oral gavage
[1] = Pharmacokinetics of LUM002 following single administration to rats; type: in vivo, Sprague Dawley Rat; conditions: for F: PO 20 mg/kg free acid, topmost estimate assuming 1 ng/mL over 24 h and dose-linear exposure
Experimental: To each rat either a single oral (PO; 20 mg/kg free acid) or a single intravenous (IV; 2 mg/kg free acid) dose of [^14Cl]LUM002 was administered. For PO and IV administration, the test substance was prepared with the adequate amount of water to reach a solution with a concentration of approximately 4 mg/g (PO) and 1 mg/g (IV). Oral administration was a gavage using a stomach tube and IV administration was a bolus injection into the tail vein. Exact doses administered to animals were calculated according to syringe weights.
The doses of radioactivity actually administered were determined by using standards prior to and after treatment of the animals. Blood—Animals were anaesthetized (Isoflurane) for blood sampling (3 animals/time point) and then euthanized by […]. Blood samples (maximal volume from each animal approx. 8 mL) were withdrawn from the abdominal aorta into containers containing a small amount of lithium heparin. and samples were centrifuged for 2 minutes at 1540 g. Aliquots (100 μL) of blood were used for hematocrit determination. Animals for the control groups (male and/or female) were used as predose animals for sampling of untreated biological samples (blood and plasma or liver, myocardium, kidneys only from male control animals). Plasma—To obtain plasma, blood samples were centrifuged for 10 minutes and stored cooled before final division.
Bioanalytical analysis—50 μL of plasma samples were placed into an 1.5 mL reaction tube. 5 μL methanol was added to each sample. For protein precipitation, 100 μL of the internal standard working solution (100 ng/mL of benzyl-13C6-LUM002 in acetonitrile) and 50 μL acetonitrile were added. In case of double blank samples, pure acetonitrile was added. Tubes were sealed and mixed thoroughly for 10 seconds. The tubes were centrifuged for 5 minutes at ≧3000 g. 50 μL of the clear supernatant was transferred into an autoinjector vial and were diluted with 50 μL deionized water. Analysis of samples was performed by using LC-MSMS (injection volume 50-75 μL) with a lower limit of quantification in the assay of 1 ng/mL for LUM002.

[2] = M, IV bolus injection 2 mg/kg free acid

CCCCC1(CCCC)CS(=O)(=O)c2ccc(N(C)C)cc2[C@@H](c2ccc(OCc3ccc(C[N+]45CCN(CC4)CC5)cc3)cc2)[C@H]1O [LUM001]
Mean Daily Total Fecal Bile Acids Excretion (fecal bile acids; 0.5 mg (n=16), Days 9-14): 266.8 μmole/24 hr
Mean Daily Total Fecal Bile Acids Excretion (fecal bile acids; 0.5 mg (n=16), Days 23-28): 294.9 μmole/24 hr
Mean Daily Total Fecal Bile Acids Excretion (fecal bile acids; 1.0 mg (n=8), Days 9-14): 642.7 μmole/24 hr
Mean Daily Total Fecal Bile Acids Excretion (fecal bile acids; 1.0 mg (n=8), Days 23-28): 780.3 μmole/24 hr
Mean Daily Total Fecal Bile Acids Excretion (fecal bile acids; 2.5 mg (n=8), Days 9-14): 478.0 μmole/24 hr
Mean Daily Total Fecal Bile Acids Excretion (fecal bile acids; 2.5 mg (n=8), Days 23-28): 590.7 μmole/24 hr
Mean Daily Total Fecal Bile Acids Excretion (fecal bile acids; 5 mg (n=8), Days 9-14): 1105.1 μmole/24 hr
Mean Daily Total Fecal Bile Acids Excretion (fecal bile acids; 5 mg (n=8), Days 23-28): 848.4 μmole/24 hr
Mean Daily Total Fecal Bile Acids Excretion (fecal bile acids; 5 mg qPM (n=15), Days 9-14): 496.9 μmole/24 hr
Mean Daily Total Fecal Bile Acids Excretion (fecal bile acids; 5 mg qPM (n=15), Days 23-28): 593.3 μmole/24 hr
Mean Daily Total Fecal Bile Acids Excretion (fecal bile acids; 10 mg (n=8), Days 9-14): 1237.0 μmole/24 hr
Mean Daily Total Fecal Bile Acids Excretion (fecal bile acids; 10 mg (n=8), Days 23-28): 1126.0 μmole/24 hr
Mean Daily Total Fecal Bile Acids Excretion (fecal bile acids; 20 mg (n=16), Days 9-14): 902.9 μmole/24 hr
Mean Daily Total Fecal Bile Acids Excretion (fecal bile acids; 20 mg (n=16), Days 23-28): 865.2 μmole/24 hr
Mean Daily Total Fecal Bile Acids Excretion (fecal bile acids; 60 mg (n=8), Days 9-14): 973.4 μmole/24 hr
Mean Daily Total Fecal Bile Acids Excretion (fecal bile acids; 60 mg (n=8), Days 23-28): 964.5 μmole/24 hr
Mean Daily Total Fecal Bile Acids Excretion (fecal bile acids; 100 mg (n=8), Days 9-14): 2405.7 μmole/24 hr
Mean Daily Total Fecal Bile Acids Excretion (fecal bile acids; 100 mg (n=8), Days 23-28): 1718.3 μmole/24 hr
Fecal Bile Acids (fecal bile acids; healthy adults, multiple oral doses, 28 days): significant increase in fecal bile acids

CCCC[C@]1(CC)CS(=O)(=O)c2ccc(N(C)C)cc2[C@@H](c2cccc(NC(=O)N[C@@H]3O[C@H](COS(=O)(=O)[O-])[C@@H](O)[C@H](OCc4ccccc4)[C@H]3O)c2)[C@H]1O.CCO.O.[K+] [LUM002, potassium((2R,3R,4S,5R,6R)-4-benzyloxy-6-{3-[3-((3S,4R,5R)-3-butyl-7-dimethylamino-3-ethyl-4-hydroxy-1,1-dioxo-2,3,4,5-tetrahydro-1H-benzo[b]thiepin-5-yl)-phenyl]-ureido}-3,5-dihydroxy-tetrahydro-pyran-2-ylmethyl)sulphate ethanolate, hydrate]
Plasma lipase (plasma lipase): statistically significant reductions in plasma lipase at higher doses
F ([1]; F): <1.3^e %
Cmax [1, 2]: 1.036 µg/mL
Vss [1, 2]: 3.890 L/kg
t1/2 [1, 2]: 10.7 h
Tmax ([1]; M, IV bolus injection 2 mg/kg free acid, extrapolated to t = 0): 0^c h
F ([1]; M): <1.3^e %
LUM002 dose systemically absorbed ([1]; rats, single PO 20 mg/kg vs IV 2 mg/kg free acid): Less than 2%
